Assay results: paper PMC6469167, “Cholecystokinin-2 Receptor Targeting with Novel C-terminally Stabilized HYNIC-Minigastrin Analogs Radiolabeled with Technetium-99m” (Pharmaceuticals, 2019)

How the values were obtained:
[1] = system: A431-CCK2R and A431-mock tumor-xenografts; design: species or system athymic BALB/c nude mice; conditions: mouse, in vivo
Procedure: Biodistribution studies evaluating the tumor uptake of [^99mTc]Tc-HYNIC-MGS5 and [^99mTc]Tc-HYNIC-MGS11 were performed in 7 week-old female athymic BALB/c nude mice (Charles River, Sulzfeld, Germany). To induce tumor-xenografts, mice were injected subcutaneously with 2 × 10^6 A431-CCK2R (right flank) and A431-mock cells (left flank). The tumor-xenografts were allowed to grow for 11–12 days reaching medium tumor weights of ~0.2 g. Mice were randomly divided into groups of four and injected intravenously via a lateral tail vein with 0.3 MBq of the ^99mTc-labeled HYNIC-analogs (corresponding to ~15 pmol total peptide). The groups of animals were sacrificed at 1 h and 4 h p.i., tumors and other tissues (blood, lung, heart, muscle, bone, spleen, intestine, liver, kidney, stomach and pancreas) were removed, weighed, and the radioactivity measured together with a standard in the gamma counter. Results were expressed as percentage of injected activity per gram tissue (% IA/g) and tumor-to-organ activity ratios were calculated for selected tissues. […] The radioactivity in selected organs (stomach, pancreas, liver, kidneys, A431-CCK2R and A431-mock xenograft) was additionally visualized by autoradiography using a phosphorimager (Cyclone Plus, PerkinElmer Life Sciences and Analytical Sciences, Downers Grove, Il, USA). […]

physchem = assay type: physicochemical
Procedure: The resistance against degradation of [^99mTc]Tc-HYNIC-MGS5 and [^99mTc]Tc-HYNIC-MGS11 (1000 pmol/mL, n = 2) in human serum was studied for up to 24 h. Furthermore, the radiopeptides were incubated in PBS (1000 pmol/mL, n = 1). At each time point of 1, 2, 4 and 24 h after incubation the intact radiopeptide was assessed by analytical HPLC. Serum samples were precipitated with ACN and centrifuged to collect the supernatant and diluted with water prior to radio-HPLC. […] From each phase a 75 µL sample was taken, the radioactivity measured in a 2480 Wizard^2 automatic gamma-counter (PerkinElmer Life Sciences and Analytical Sciences, Wallac Oy, Turku, Finland) and the distribution of the radiopeptides calculated. The protein binding in human serum (500 pmol/mL, n = 2) was assessed by Sephadex G-50 size-exclusion chromatography (GE Healthcare Illustra, Little Chalfont, UK) for up to 24 h.

| tumor-to-kidney ratio [1] | logD (physchem) | SMILES |
| --- | --- | --- |
| 2.0–2.6 | -2.84 ± 0.08 | CCCC[C@@H](C(=O)N[C@@H](CC(=O)O)C(=O)N(C)[C@@H](Cc1cccc2ccccc12)C(N)=O)N(C)C(=O)[C@H](Cc1c[nH]c2ccccc12)NC(=O)CNC(=O)[C@H](Cc1ccc(O)cc1)NC(=O)[C@H](C)NC(=O)[C@@H](CCC(=O)O)NC(=O)c1ccc(NN)nc1 [[^99mTc]Tc-HYNIC-MGS11, metal not drawn] |
| 2.4–3.3 | -2.91 ± 0.06 | CCCC[C@@H](C(=O)N[C@@H](CC(=O)O)C(=O)N[C@@H](Cc1cccc2ccccc12)C(N)=O)N(C)C(=O)[C@H](Cc1c[nH]c2ccccc12)NC(=O)CNC(=O)[C@H](Cc1ccc(O)cc1)NC(=O)[C@H](C)NC(=O)[C@@H](CCC(=O)O)NC(=O)c1ccc(NN)nc1 [[^99mTc]Tc-HYNIC-MGS5, metal not drawn] |
